This note sets out measurements from article doi:10.64898/2025.12.11.693803v1 (biorxiv, 2025).

One assay deals with T1, SnRK1 (in IP-TOR) (Arabidopsis thaliana, UniProt Q38997).
T1 sequence (Q38997 1-512): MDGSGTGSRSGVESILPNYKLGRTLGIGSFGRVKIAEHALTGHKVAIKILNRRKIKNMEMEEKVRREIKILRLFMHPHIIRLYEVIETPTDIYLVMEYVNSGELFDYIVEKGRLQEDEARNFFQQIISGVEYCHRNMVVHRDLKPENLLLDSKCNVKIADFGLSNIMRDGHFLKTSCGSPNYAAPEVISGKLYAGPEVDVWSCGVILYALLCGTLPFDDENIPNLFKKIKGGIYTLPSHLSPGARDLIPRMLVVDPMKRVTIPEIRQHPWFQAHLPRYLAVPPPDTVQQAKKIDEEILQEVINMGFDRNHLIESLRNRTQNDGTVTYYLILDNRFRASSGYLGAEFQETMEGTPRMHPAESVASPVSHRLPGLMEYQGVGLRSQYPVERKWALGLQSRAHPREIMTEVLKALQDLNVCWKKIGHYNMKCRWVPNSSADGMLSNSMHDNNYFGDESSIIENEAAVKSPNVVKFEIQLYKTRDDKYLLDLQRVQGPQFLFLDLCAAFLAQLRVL
Put plainly: AMARA-peptide kinase assay with [γ-32P]ATP. Format: biochemical. To be noted: IP-TOR sample; 200 μM AMARA peptide, 20 μM ATP, 10 mM MgCl2, pH 7.5, 30 °C.

Another assay has as its target IP-TOR (TOR) (Arabidopsis thaliana, UniProt Q9FR53). Put plainly: biochemical.

Sequence of IP-TOR (TOR) (Q9FR53 whole entry): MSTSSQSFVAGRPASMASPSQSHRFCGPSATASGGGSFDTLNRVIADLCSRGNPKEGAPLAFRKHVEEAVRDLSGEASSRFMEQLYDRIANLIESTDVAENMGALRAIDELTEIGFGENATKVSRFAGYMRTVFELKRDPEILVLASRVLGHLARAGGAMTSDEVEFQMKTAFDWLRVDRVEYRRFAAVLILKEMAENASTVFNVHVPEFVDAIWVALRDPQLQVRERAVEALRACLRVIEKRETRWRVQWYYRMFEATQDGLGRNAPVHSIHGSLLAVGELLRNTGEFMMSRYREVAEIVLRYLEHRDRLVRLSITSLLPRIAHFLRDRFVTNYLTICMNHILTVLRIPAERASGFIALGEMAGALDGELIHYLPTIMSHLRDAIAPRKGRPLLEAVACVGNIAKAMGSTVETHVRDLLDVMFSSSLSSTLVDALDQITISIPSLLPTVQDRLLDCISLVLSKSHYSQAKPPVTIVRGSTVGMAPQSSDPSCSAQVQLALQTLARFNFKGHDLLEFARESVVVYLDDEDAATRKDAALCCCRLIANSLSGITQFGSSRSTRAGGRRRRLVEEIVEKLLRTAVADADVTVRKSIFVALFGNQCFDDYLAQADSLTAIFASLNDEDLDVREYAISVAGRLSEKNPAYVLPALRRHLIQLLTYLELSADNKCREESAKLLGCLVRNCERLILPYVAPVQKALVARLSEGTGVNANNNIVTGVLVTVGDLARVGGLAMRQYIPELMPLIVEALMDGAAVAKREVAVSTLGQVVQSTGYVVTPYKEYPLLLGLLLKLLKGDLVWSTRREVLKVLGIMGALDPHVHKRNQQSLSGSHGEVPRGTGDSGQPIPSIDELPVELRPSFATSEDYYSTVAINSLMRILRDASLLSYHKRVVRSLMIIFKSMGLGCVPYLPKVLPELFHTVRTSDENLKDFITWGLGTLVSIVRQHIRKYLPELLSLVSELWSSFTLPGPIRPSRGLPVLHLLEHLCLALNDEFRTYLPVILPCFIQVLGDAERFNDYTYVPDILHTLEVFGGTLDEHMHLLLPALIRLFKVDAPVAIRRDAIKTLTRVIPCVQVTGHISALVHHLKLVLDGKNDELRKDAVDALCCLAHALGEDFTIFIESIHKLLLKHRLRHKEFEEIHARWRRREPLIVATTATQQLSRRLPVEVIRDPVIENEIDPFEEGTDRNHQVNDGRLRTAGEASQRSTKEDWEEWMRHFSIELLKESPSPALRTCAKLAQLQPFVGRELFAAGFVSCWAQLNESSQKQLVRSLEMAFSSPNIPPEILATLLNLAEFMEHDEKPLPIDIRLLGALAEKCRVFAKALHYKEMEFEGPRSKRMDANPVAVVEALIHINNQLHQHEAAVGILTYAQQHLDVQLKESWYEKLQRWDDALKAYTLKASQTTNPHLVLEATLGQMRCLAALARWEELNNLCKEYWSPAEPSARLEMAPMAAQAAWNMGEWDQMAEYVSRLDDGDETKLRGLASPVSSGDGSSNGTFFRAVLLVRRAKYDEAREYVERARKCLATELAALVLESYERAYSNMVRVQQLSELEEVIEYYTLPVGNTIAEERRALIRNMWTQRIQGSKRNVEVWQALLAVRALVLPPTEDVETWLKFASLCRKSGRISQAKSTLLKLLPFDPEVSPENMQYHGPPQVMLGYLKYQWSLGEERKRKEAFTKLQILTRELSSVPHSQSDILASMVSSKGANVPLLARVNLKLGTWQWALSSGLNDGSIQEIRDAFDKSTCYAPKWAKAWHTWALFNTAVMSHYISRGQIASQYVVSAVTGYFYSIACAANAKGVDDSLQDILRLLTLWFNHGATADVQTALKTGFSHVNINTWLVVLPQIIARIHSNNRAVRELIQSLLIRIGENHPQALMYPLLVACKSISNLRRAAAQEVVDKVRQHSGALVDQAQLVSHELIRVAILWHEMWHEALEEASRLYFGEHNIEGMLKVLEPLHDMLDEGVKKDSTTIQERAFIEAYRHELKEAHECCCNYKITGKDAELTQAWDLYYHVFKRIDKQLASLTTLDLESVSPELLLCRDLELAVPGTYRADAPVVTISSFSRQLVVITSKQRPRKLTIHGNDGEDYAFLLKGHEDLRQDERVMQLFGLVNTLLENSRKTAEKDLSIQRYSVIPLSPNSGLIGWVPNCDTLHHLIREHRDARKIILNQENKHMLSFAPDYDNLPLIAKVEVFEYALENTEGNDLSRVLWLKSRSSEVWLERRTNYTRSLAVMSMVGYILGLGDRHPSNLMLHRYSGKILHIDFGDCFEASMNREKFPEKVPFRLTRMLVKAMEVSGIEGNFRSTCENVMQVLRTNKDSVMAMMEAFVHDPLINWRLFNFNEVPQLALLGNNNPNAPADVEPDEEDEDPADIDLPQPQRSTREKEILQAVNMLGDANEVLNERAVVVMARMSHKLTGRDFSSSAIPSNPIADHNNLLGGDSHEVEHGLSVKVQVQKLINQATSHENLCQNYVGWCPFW

`O=P(O)(O)OC[C@H]1O[C@H](O[C@H]2O[C@H](CO)[C@@H](O)[C@H](O)[C@H]2O)[C@H](O)[C@@H](O)[C@@H]1O` [T6P, Trehalose 6-phosphate]: the “% reduction of activity at 1 mM” value at SnRK1 (in IP-TOR) is greater than 50%.
By Kd is commonly meant the equilibrium constant for the complex coming apart. Low values mean a tighter complex, high ones a looser complex. In the case of `Nc1ncnc2c1ncn2[C@@H]1O[C@H](COP(=O)(O)OP(=O)(O)OP(=O)(O)O)[C@@H](O)[C@H]1O` [ATP], the affinity on IP-TOR (TOR), expressed as Kd, was 5.89 ± 0.83 µM.
